The values below come from the OligoGym collection.

Where “and” joins values, the source holds several entries; their conditions need not be identical. Equal entries are not always repeated. After the bases stand the sugars from the 5' end (letter, count) and the backbone: PS all phosphorothioate, else s phosphorothioate and o phosphodiester by linkage. Methylation of C is not given here. e = 2'-O-(2-methoxyethyl) (MOE); k = constrained ethyl (cEt); d = 2'-deoxy (DNA)

In the data set the target is IRF4. The settings on record: ASO.

“TCTATAGTGTTCCAGG (sugars kkdddddddddekeke, PS)”: the target mRNA inhibition was 5% (MM.1R, 0.074 µM); 17% (MM.1R, 0.222 µM); 37% (MM.1R, 0.666 µM); 56% and 50% (MM.1R, 1 µM); 68% (MM.1R, 2 µM).
For the sequence TCTCCCACACCAGCCC (sugars k4 d8 k4, PS), the target mRNA inhibition (SK-MEL-28, 4 µM) is 25%.
Still for that read-out and setting: under TCTCCGCCTCGGCCGC (sugars k3 d10 k3, PS) stands 41%; under TCTGACAAGAACTGCT (sugars k3 d10 k3, PS), 12%; under TCTGAGACTACACCTA (sugars k3 d10 k3, PS), 27%.
Same read-out and setting: in the case of TCTGAGAGCAAATTGA (sugars k3 d10 k3, PS) it was 29%; in that of TCTGAGATGTCCAGCT (sugars k3 d10 k3, PS), 45%.
The same measure, in the same setting: in the case of TCTGAGGGTCTGGAAA (sugars k3 d10 k3, PS) it was 9%.
TCTGGATGAGCTTACA (sugars k3 d10 k3, PS): under “MM.1R, 1 µM”, the target mRNA inhibition turned out to be 14%.
In the case of TCTTTAAAATATCGCC (sugars k3 d10 k3, PS), the target mRNA inhibition (MM.1R, 1 µM) is -45%.
TCTTTGGGATTCTATA (sugars k3 d10 k3, PS): the target mRNA inhibition (SK-MEL-28, 4 µM) was found to be 60%.
Still for that read-out and setting: in the case of TGAACCCTTCATCAGA (sugars k3 d10 k3, PS) it was 48%.
On the same count and under the same terms, in the case of TGAAGCAACACGGGAA (sugars k3 d10 k3, PS) it was 60%; in that of TGAAGTGCTGTGTGGG (sugars k3 d10 k3, PS), 57%.
As for TGACACAGGAGCCGCT (sugars k3 d10 k3, PS), the target mRNA inhibition (MM.1R, 1 µM) stood at 15%.
Take TGACTCCATGAGGTTT (sugars k3 d10 k3, PS): the target mRNA inhibition (SK-MEL-28, 4 µM) worked out at 65%.
With TGAGGCATACAGTGTG (sugars k3 d10 k3, PS), the target mRNA inhibition (MM.1R, 1 µM) was determined as 18%.
For TGATAAGGCACTACTT (sugars k3 d10 k3, PS), the target mRNA inhibition (SK-MEL-28, 4 µM) stood at 35%.
The same measure, in the same setting: under TGATAGCTGAGCTGAT (sugars k3 d10 k3, PS) stands 37%; under TGATGTATACCAACGA (sugars k3 d10 k3, PS), 62% and 87%.
Consider TGATGTGATAGCTGAG (sugars k3 d10 k3, PS), for which the target mRNA inhibition (MM.1R, 1 µM) turned out to be 59%.
As to “TGATGTGATAGCTGAG (sugars kkdddddddddkekek, PS)”, the target mRNA inhibition (MM.1R, 1 µM) was -2%.
Regarding TGCAAAACCAGTACAG (sugars k3 d10 k3, PS), the target mRNA inhibition (SK-MEL-28, 4 µM) amounted to 28%.
Same read-out and setting: under TGCAAGCCTCATTCAC (sugars k3 d10 k3, PS) stands 42%; under TGCACTCGCGCAAAGG (sugars k3 d10 k3, PS), 28%; under TGCATAACACGGTGTT (sugars k3 d10 k3, PS), 38%.
On the same count and under the same terms, under TGCATCTATAAGATGT (sugars k3 d10 k3, PS) stands 32%; under TGCCACAACTCTCGCC (sugars k3 d10 k3, PS), 31%.
Regarding TGCCGCTGTCGATCTG (sugars k3 d10 k3, PS), where the note is “SK-MEL-28, 4 µM”, the target mRNA inhibition turned out to be 32%.
On the same count and under the same terms, under TGCCTCTGTTAGGTGA (sugars k3 d10 k3, PS) stands 34%; under TGCGAATGTGCCTTGT (sugars k3 d10 k3, PS), 43%.
Consider TGCTCACTAAGCTTGA (sugars k3 d10 k3, PS), for which the target mRNA inhibition (MM.1R, 1 µM) turned out to be 12%.
As for TGCTGAACCCCACAGG (sugars k3 d10 k3, PS), where the note is “SK-MEL-28, 4 µM”, the target mRNA inhibition was found to be 33%.
With “TGCTTGAGGTTTTCCT (sugars kkkdddddddddkeke, PS)”, the target mRNA inhibition (MM.1R, 1 µM) was found to be 35%.
TGGAAACCAGCCCTTG (sugars k3 d10 k3, PS): the target mRNA inhibition (SK-MEL-28, 4 µM) was found to be 48%.
As for TGGAAACGAGAACGCA (sugars k3 d10 k3, PS), the target mRNA inhibition (MM.1R, 1 µM) is -7%.
Turning to TGGAATCTTGGCAGGG (sugars k3 d10 k3, PS), the target mRNA inhibition (SK-MEL-28, 4 µM) came out at 40%.
On to TGGAGAAACGAGCCAG (sugars k3 d10 k3, PS), for which, where the note is “SK-MEL-28, 4 µM”, the target mRNA inhibition is 38%.
The same measure, in the same setting: in the case of TGGCAACCATTTTCAC (sugars k4 d8 k4, PS) it was 7%; in that of TGGCACAATTCTCTGA (sugars k3 d10 k3, PS), 13%; in that of TGGCACAGACATACCT (sugars k3 d10 k3, PS), 38%.
On the same count and under the same terms, in the case of TGGCAGGGAGCGGCCG (sugars k3 d10 k3, PS) it was 11%; in that of TGGCCCTTCTCTCACG (sugars k3 d10 k3, PS), 11%.
With TGGCGAGTGGCGGGTA (sugars k3 d10 k3, PS), where the note is “MM.1R, 1 µM”, the target mRNA inhibition was -18%.
Consider TGGCTCATGGACATCT (sugars k3 d10 k3, PS), for which the target mRNA inhibition (SK-MEL-28, 4 µM) was 32%.
As for TGGCTGATAATTAATC (sugars k3 d10 k3, PS), the target mRNA inhibition (MM.1R, 1 µM) was -5%.
TGGGAATCCTTAATTA (sugars k3 d10 k3, PS): the target mRNA inhibition (SK-MEL-28, 4 µM) was 12%.
Consider TGGGACATTGGTACGG (sugars k3 d10 k3, PS), for which the target mRNA inhibition was 4% (MM.1R, 0.074 µM); 2% (MM.1R, 0.222 µM); 13% (MM.1R, 0.666 µM); 34% (MM.1R, 2 µM); 69% (SK-MEL-28, 4 µM).
For TGGGAGTAATAGTAAA (sugars k3 d10 k3, PS), the target mRNA inhibition (SK-MEL-28, 4 µM) was 16%.
Turning to “TGGGATTATATACTGG (sugars kdddddddddkekeke, PS)”, the target mRNA inhibition (MM.1R, 1 µM) was 40%.
Still for that read-out and setting: in the case of “TGGGATTATATACTGG (sugars kkdddddddddekeke, PS)” it was 63%; in that of “TGGGATTATATACTGG (sugars kkdddddddddkdkdk, PS)”, 25%; in that of “TGGGATTATATACTGG (sugars kkdddddddddkekek, PS)”, 42%.
In the case of TGGGTACATGGCAGTG (sugars k3 d10 k3, PS), the target mRNA inhibition (SK-MEL-28, 4 µM) stood at 74%.
The same measure, in the same setting: in the case of TGGTAACAATACTGTA (sugars k3 d10 k3, PS) it was 65%; in that of TGGTAGAATGTGATAT (sugars k3 d10 k3, PS), 43%.
On the same count and under the same terms, in the case of TGGTAGGTAGGCACCT (sugars k3 d10 k3, PS) it was 35%.
Turning to TGGTATTTTTCCGTTC (sugars k3 d10 k3, PS), the target mRNA inhibition reads like this: (MM.1R, 0.0625 µM) 6%; (MM.1R, 0.074 µM) 13%; (MM.1R, 0.222 µM) 6%; (MM.1R, 0.25 µM) 20%; (MM.1R, 0.666 µM) 24%; (MM.1R, 1 µM) 39%. The target mRNA inhibition is, setting by setting: (MM.1R, 2 µM) 51%; (MM.1R, 4 µM) 73%; (SK-MEL-28, 4 µM) 69%.
Turning to TGGTGGGTCCTGGCAG (sugars k3 d10 k3, PS), the target mRNA inhibition (SK-MEL-28, 4 µM) amounted to 23%.
With TGGTTGGCTGGTCTTT (sugars k3 d10 k3, PS), the target mRNA inhibition was 6% (MM.1R, 0.0625 µM); 40% (MM.1R, 0.25 µM); 88% and 69% (MM.1R, 1 µM); 89% (MM.1R, 4 µM).
For the sequence “TGGTTGGCTGGTCTTT (sugars kddddddddddkekek, PS)”, the target mRNA inhibition (MM.1R, 1 µM) came to 9%.
On to TGTAAATGAGTCGGTC (sugars k3 d10 k3, PS), for which the target mRNA inhibition (SK-MEL-28, 4 µM) came to 69%.
TGTACAGGACAGGTAA (sugars k3 d10 k3, PS): the target mRNA inhibition (MM.1R, 1 µM) amounted to 8%.
With TGTAGGGCGACTAACT (sugars k3 d10 k3, PS), where the note is “SK-MEL-28, 4 µM”, the target mRNA inhibition is 21%.
In the case of “TGTAGTATGAGAAACG (sugars e1 k2 d9 k2 e2, PS)”, the target mRNA inhibition (MM.1R, 1 µM) was found to be 6%.
The same measure, in the same setting: under “TGTAGTATGAGAAACG (sugars k3 d9 k3 e1, PS)” stands 33%.
The same measure, in the same setting: under “TGTAGTATGAGAAACG (sugars kkdddddddddkdkdk, PS)” stands -6%.
As for TGTATACATCACTGCA (sugars k3 d10 k3, PS), the target mRNA inhibition (SK-MEL-28, 4 µM) was found to be 63%.
On the same count and under the same terms, under TGTATAGTTCTCAACC (sugars k3 d10 k3, PS) stands 43%.
For TGTATTACTCTTAGGC (sugars k3 d10 k3, PS), the target mRNA inhibition (MM.1R, 0.0625 µM) was determined as 7%; the target mRNA inhibition (MM.1R, 0.25 µM) came out at 21%; the target mRNA inhibition (MM.1R, 1 µM) is 65% and 41%; the target mRNA inhibition (MM.1R, 4 µM) amounted to 68%.
Regarding TGTATTTATGCCCTCG (sugars k3 d10 k3, PS), where the note is “SK-MEL-28, 4 µM”, the target mRNA inhibition worked out at 44%.
The same measure, in the same setting: in the case of TGTCCAGCTGGCTCCG (sugars k3 d10 k3, PS) it was 39%; in that of TGTCGATGCCTTCTCG (sugars k3 d10 k3, PS), 28%.
Same read-out and setting: under TGTGAACCTGCTGGGC (sugars k3 d10 k3, PS) stands 2%.
Still for that read-out and setting: under TGTGACATAAAGGACC (sugars k3 d10 k3, PS) stands 27%.
As for “TGTGATAGCTGAGCTG (sugars k2 d9 e3 k2, PS)”, under “MM.1R, 1 µM”, the target mRNA inhibition was 12%.
TGTGATAGCTGAGCTG (sugars k3 d10 k3, PS): the target mRNA inhibition (MM.1R, 1 µM) is 47%.
Same read-out and setting: in the case of “TGTGATAGCTGAGCTG (sugars kddddddddddkekek, PS)” it was -2%; in that of “TGTGCTTGCCAAGCCT (sugars k2 d9 e3 k2, PS)”, 45% and 40%; in that of TGTGCTTGCCAAGCCT (sugars k3 d10 k3, PS), 38% and 49%.
Same read-out and setting: under “TGTGCTTGCCAAGCCT (sugars kkdddddddddekeke, PS)” stands 21% and 1%; under TGTGGTTTCACATGAT (sugars k3 d10 k3, PS), 21%.
Take TGTGTCAAAGAGCTTG (sugars k3 d10 k3, PS): the target mRNA inhibition (SK-MEL-28, 4 µM) came to 22%.
Turning to “TGTTACCGATGCTTCA (sugars kdddddddddkekeke, PS)”, the target mRNA inhibition (MM.1R, 1 µM) is 10% and 13%.
In the case of TGTTAGCTACAAAGAG (sugars k3 d10 k3, PS), under “SK-MEL-28, 4 µM”, the target mRNA inhibition is 47%.
With TGTTAGGTGACCCAAA (sugars k3 d10 k3, PS), the target mRNA inhibition (MM.1R, 1 µM) was 2%.
